Measured values as given in ChEMBL document CHEMBL2311324, “Inhibitors of HIV-1 attachment. Part 10. The discovery and structure-activity relationships of 4-azaindole cores” (Bioorg Med Chem Lett, 2013).

Experiments:
[1] = test system: Human immunodeficiency virus 1; test: Antiviral activity against HIV1 JR-FL in human HeLa cells expressing CD4, CCR5 assessed as inhibition of integration of viral DNA into cell genome after 3 days by luciferase reporter gene assay; assay type: functional, organism-based; settings: Human immunodeficiency virus 1, JR-FL, 72 h
[2] = Cytotoxicity against human HeLa cells expressing CD4, CCR5 after 3 days; assay type: cell-based; settings: HeLa cells expressing CD4 and CCR5
Rattus norvegicus [3] = test: AUC in rat at 5 mg/kg, po; assay type: ADME, organism-based, Plasma; parameters: dose 5 mg/kg, route oral; settings: in vivo
Rattus norvegicus [4] = test: Oral bioavailability in rat at 5 mg/kg; assay type: ADME, organism-based; settings: in vivo

| Structure (SMILES) | EC50 [1] | CC50 at 72 h [2] | AUC (Rattus norvegicus [3]) | F (Rattus norvegicus [4]) |
| --- | --- | --- | --- | --- |
| O=C(C(=O)N1CCN(C(=O)c2ccccc2)CC1)c1c[nH]c2c(-c3ncco3)ccnc12 | 0.39 nM | > 300000 nM |  |  |
| Cc1cnn(-c2ccnc3c(C(=O)C(=O)N4CCN(C(=O)c5ccccc5)[C@H](C)C4)c[nH]c23)c1 | 1.59 nM | > 150000 nM |  |  |
| C[C@@H]1CN(C(=O)C(=O)c2c[nH]c3c(-n4nc5ccccc5n4)ccnc23)CCN1C(=O)c1ccccc1 | 0.31 nM | 74000 nM |  |  |
| C[C@@H]1CN(C(=O)C(=O)c2c[nH]c3c(-n4nnc5ccccc54)ccnc23)CCN1C(=O)c1ccccc1 | 5.34 nM | 71000 nM |  |  |
| Cc1ncn(-c2ccnc3c(C(=O)C(=O)N4CCN(C(=O)c5ccccc5)[C@H](C)C4)c[nH]c23)n1 | 0.59 nM | > 300000 nM |  |  |
| Cc1ncnn1-c1ccnc2c(C(=O)C(=O)N3CCN(C(=O)c4ccccc4)[C@H](C)C3)c[nH]c12 | 10.8 nM | > 300000 nM |  |  |
| O=C(C(=O)N1CCN(C(=O)c2ccccc2)CC1)c1c[nH]c2c(-n3nc4ccccc4n3)ccnc12 | 0.21 nM | 124000 nM |  |  |
| O=C(C(=O)N1CCN(C(=O)c2ccccc2)CC1)c1c[nH]c2c(-n3nnc4ccccc43)ccnc12 | 23.6 nM | 246000 nM |  |  |
| O=C(C(=O)N1CCN(C(=O)c2ccccc2)CC1)c1c[nH]c2c(-n3nnc4cccnc43)ccnc12 | 10.6 nM | > 300000 nM |  |  |
| C[C@@H]1CN(C(=O)C(=O)c2c[nH]c3c(Cl)ccnc23)CCN1C(=O)c1ccccc1 | 11.6 nM | 300000 nM |  |  |
| C[C@@H]1CN(C(=O)C(=O)c2c[nH]c3c(-c4cccs4)ccnc23)CCN1C(=O)c1ccccc1 | 0.24 nM | 168000 nM |  |  |
| Cc1csc(-c2ccnc3c(C(=O)C(=O)N4CCN(C(=O)c5ccccc5)[C@H](C)C4)c[nH]c23)c1 | 0.21 nM | 123000 nM |  |  |
| Cc1cnc(-c2ccnc3c(C(=O)C(=O)N4CCN(C(=O)c5ccccc5)[C@H](C)C4)c[nH]c23)s1 | 0.71 nM | 28000 nM |  |  |
| Cc1csc(-c2ccnc3c(C(=O)C(=O)N4CCN(C(=O)c5ccccc5)[C@H](C)C4)c[nH]c23)n1 | 0.19 nM | 30000 nM |  |  |
| C[C@@H]1CN(C(=O)C(=O)c2c[nH]c3c(-n4nccn4)ccnc23)CCN1C(=O)c1ccccc1 | 0.44 nM | 300000 nM | 3.3 µM·h | 78% |
| Cc1ccn(-c2ccnc3c(C(=O)C(=O)N4CCN(C(=O)c5ccccc5)[C@H](C)C4)c[nH]c23)n1 | 0.46 nM | 300000 nM |  |  |
| O=C(C(=O)N1CCN(C(=O)c2ccccc2)CC1)c1c[nH]c2c(-c3ccccn3)ccnc12 | 0.93 nM | 231000 nM |  |  |
| O=C(C(=O)N1CCN(C(=O)c2ccccc2)CC1)c1c[nH]c2c(-c3cnccn3)ccnc12 | 1.71 nM | > 300000 nM |  |  |
| COc1cccc(-c2ccnc3c(C(=O)C(=O)N4CCN(C(=O)c5ccccc5)CC4)c[nH]c23)n1 | 7.4 nM | 174000 nM |  |  |

| Structure (SMILES) | EC50 [1] | CC50 at 72 h [2] | AUC (Rattus norvegicus [3]) | F (Rattus norvegicus [4]) |
| --- | --- | --- | --- | --- |
| O=C(C(=O)N1CCN(C(=O)c2ccccc2)CC1)c1c[nH]c2c(-n3cncn3)ccnc12 | 0.64 nM | > 300000 nM |  |  |
| O=C(C(=O)N1CCN(C(=O)c2ccccc2)CC1)c1c[nH]c2c(-n3ccnn3)ccnc12 | 0.88 nM | > 300000 nM |  |  |
| O=C(C(=O)N1CCN(C(=O)c2ccccc2)CC1)c1c[nH]c2c(-n3cccn3)ccnc12 | 0.89 nM | > 300000 nM |  |  |
| O=C(C(=O)N1CCN(C(=O)c2ccccc2)CC1)c1c[nH]c2c(Cl)ccnc12 | 18.4 nM | > 300000 nM |  |  |
| COc1ccnc2c(C(=O)C(=O)N3CCN(C(=O)c4ccccc4)CC3)c[nH]c12 | 12.3 nM | > 300000 nM |  |  |
| Cc1csc(-c2ccnc3c(C(=O)C(=O)N4CCN(C(=O)c5ccccc5)CC4)c[nH]c23)c1 | 0.02 nM | 85000 nM |  |  |
| CC(=O)c1ccc(-c2ccnc3c(C(=O)C(=O)N4CCN(C(=O)c5ccccc5)CC4)c[nH]c23)s1 | 0.29 nM | 268000 nM |  |  |
| O=C(C(=O)N1CCN(C(=O)c2ccccc2)CC1)c1c[nH]c2c(-c3nccs3)ccnc12 | 0.21 nM | 150000 nM |  |  |
| O=C(C(=O)N1CCN(C(=O)c2ccccc2)CC1)c1c[nH]c2c(-c3cncs3)ccnc12 | 0.09 nM | > 300000 nM |  |  |
| Cc1csc(-c2ccnc3c(C(=O)C(=O)N4CCN(C(=O)c5ccccc5)CC4)c[nH]c23)n1 | 0.2 nM | 23000 nM |  |  |
| Cc1cnc(-c2ccnc3c(C(=O)C(=O)N4CCN(C(=O)c5ccccc5)CC4)c[nH]c23)s1 | 0.52 nM | 251000 nM |  |  |
| CNC(=O)c1ccnc2c(C(=O)C(=O)N3CCN(C(=O)c4ccccc4)C[C@H]3C)c[nH]c12 | 2.48 nM | > 300000 nM |  |  |
| COc1ccnc2c(C(=O)C(=O)N3CCN(C(=O)c4ccccc4)C[C@H]3C)c[nH]c12 | 0.63 nM | > 300000 nM |  |  |
| COc1ccnc2c(C(=O)C(=O)N3CCN(C(=O)c4ccccc4)C[C@H]3C)cn(C)c12 | 7.37 nM | > 300000 nM |  |  |
| COc1ccc(-c2ccnc3c(C(=O)C(=O)N4CCN(C(=O)c5ccccc5)C[C@H]4C)c[nH]c23)cc1 | 0.32 nM | > 300000 nM |  |  |
| C[C@@H]1CN(C(=O)c2ccccc2)CCN1C(=O)C(=O)c1c[nH]c2c(-c3cncnc3)ccnc12 | 0.68 nM | 35300 nM |  |  |
| C[C@@H]1CN(C(=O)c2ccccc2)CCN1C(=O)C(=O)c1c[nH]c2c(-c3cnccn3)ccnc12 | 0.27 nM | 15300 nM |  |  |
| C[C@@H]1CN(C(=O)c2ccccc2)CCN1C(=O)C(=O)c1c[nH]c2c(C(=O)Nc3nccs3)ccnc12 | 0.43 nM | > 300000 nM |  |  |
| Cc1csc(NC(=O)c2ccnc3c(C(=O)C(=O)N4CCN(C(=O)c5ccccc5)C[C@H]4C)c[nH]c23)n1 | 3.4 nM | > 300000 nM |  |  |

| Structure (SMILES) | EC50 [1] | CC50 at 72 h [2] | AUC (Rattus norvegicus [3]) | F (Rattus norvegicus [4]) |
| --- | --- | --- | --- | --- |
| CON(C)C(=O)c1ccnc2c(C(=O)C(=O)N3CCN(C(=O)c4ccccc4)C[C@H]3C)c[nH]c12 | 61.1 nM | > 300000 nM |  |  |
| C[C@@H]1CN(C(=O)c2ccccc2)CCN1C(=O)C(=O)c1c[nH]c2c(-c3cccs3)ccnc12 | 0.02 nM | > 300000 nM |  |  |
| C[C@@H]1CN(C(=O)c2ccccc2)CCN1C(=O)C(=O)c1c[nH]c2c(-c3ccsc3)ccnc12 | 0.18 nM | 94500 nM |  |  |
| C[C@@H]1CN(C(=O)c2ccccc2)CCN1C(=O)C(=O)c1c[nH]c2c(-c3cc4ccccc4s3)ccnc12 | 0.1 nM | 170000 nM |  |  |
| Cc1csc(-c2ccnc3c(C(=O)C(=O)N4CCN(C(=O)c5ccccc5)C[C@H]4C)c[nH]c23)c1 | 0.04 nM | 48900 nM |  |  |
| C[C@@H]1CN(C(=O)c2ccccc2)CCN1C(=O)C(=O)c1c[nH]c2c(-c3nccs3)ccnc12 | 0.1 nM | > 300000 nM |  |  |
| C[C@@H]1CN(C(=O)c2ccccc2)CCN1C(=O)C(=O)c1c[nH]c2c(-c3ncco3)ccnc12 | 0.18 nM | > 300000 nM |  |  |
| Cc1noc(C)c1-c1ccnc2c(C(=O)C(=O)N3CCN(C(=O)c4ccccc4)C[C@H]3C)c[nH]c12 | 1.05 nM | > 300000 nM |  |  |
| Cc1ccnc2c(C(=O)C(=O)N3CCN(C(=O)c4ccccc4)CC3)c[nH]c12 | 46.3 nM | > 300000 nM |  |  |
| COc1cncc2[nH]cc(C(=O)C(=O)N3CCN(C(=O)c4ccccc4)C[C@H]3C)c12 | 1.3 nM | 6000 nM |  |  |
| C[C@@H]1CN(C(=O)c2ccccc2)CCN1C(=O)C(=O)c1c[nH]c2c(Cl)ccnc12 | 1.22 nM | > 300000 nM |  |  |
| Cc1ccnc2c(C(=O)C(=O)N3CCN(C(=O)c4ccccc4)C[C@H]3C)c[nH]c12 | 3.06 nM | > 300000 nM |  |  |
| C[C@@H]1CN(C(=O)c2ccccc2)CCN1C(=O)C(=O)c1c[nH]c2c(C(=O)O)ccnc12 | 3.38 nM | > 300000 nM |  |  |
| C[C@@H]1CN(C(=O)c2ccccc2)CCN1C(=O)C(=O)c1c[nH]c2ncccc12 | 1.7 nM | 280000 nM |  |  |
| C[C@@H]1CN(C(=O)c2ccccc2)CCN1C(=O)C(=O)c1c[nH]c2ccccc12 | 4.9 nM | 195000 nM |  |  |
| COc1cccc2[nH]cc(C(=O)C(=O)N3CCN(C(=O)c4ccccc4)C[C@H]3C)c12 | 0.8 nM | 250000 nM |  |  |
| C[C@@H]1CN(C(=O)c2ccccc2)CCN1C(=O)C(=O)c1c[nH]c2cnccc12 | 22 nM | > 300000 nM |  |  |
| C[C@@H]1CN(C(=O)c2ccccc2)CCN1C(=O)C(=O)c1c[nH]c2cccnc12 | 1.6 nM | > 300000 nM |  |  |
| C[C@@H]1CN(C(=O)c2ccccc2)CCN1C(=O)C(=O)c1c[nH]c2ccncc12 | 580 nM | > 300000 nM |  |  |
